Publication PMC6680226, “Peptoid Efficacy against Polymicrobial Biofilms Determined by Using Propidium Monoazide‐Modified Quantitative PCR” (Chembiochem, 2016)

Key:
[1] = test system: S. aureus in polymicrobial biofilm with C. albicans; assay: PMA-qPCR, S. aureus within C. albicans-S. aureus polymicrobial biofilm; assay type: cell-based, Staphylococcus aureus; conditions: PMA-qPCR
Protocol: (§1) Preparation and treatment of polymicrobial biofilms: Overnight cultures of C. albicans were prepared in microtitre plates as above, and allowed to adhere for 4 h to facilitate initial biofilm formation. Planktonic C. albicans cells were removed as above before the addition of S. aureus or E. coli (100 μL, 5.0×10^6 cells per mL). Bacteria were allowed to adhere to the C. albicans biofilms for 4 h to facilitate polymicrobial biofilm formation. Following a washing step, the biofilms were then treated with peptoid (10–100 μM), and incubated for a further 24 h to allow biofilm maturation. Wells were washed as above, and the polymicrobial biofilms were quantified by PMA‐modified qPCR.
Biofilm quantification by PMA‐modified qPCR: In order to determine the bactericidal and fungicidal activity of peptoids against single‐species and polymicrobial biofilms, the biofilms were detached from the microtitre plate wells prior to quantification. The wells were washed as above, then BHI broth (100 μL) was added and the plate was sealed. Biofilm detachment was achieved by sonication for 5 min in an ultrasonic bath (Dawe, Hayes, Middlesex, UK). The remaining cells were then collected in BHI (80 μL). PMA (20 μL, 2 mM in broth;47 Biotium, Fremont, CA) was added to the biofilm suspensions […] and incubated (37 °C, 5 min) prior to photoactivation with a broad‐spectrum LED flood light (60 LED, 0.1 W) placed 15 cm from the tubes (mixed by inversion during the 20 min photoactivation step).48 DNA was extracted by using a microLYSIS‐Plus kit (Microzone, Haywards Heath, UK), and qPCR was performed in a Mx3005P qPCR System (Agilent Technologies).49, 50, 51 See the Tables in the Supporting Information.
(§2) Generation of standard curves for PMA‐qPCR: For quantification of C. albicans, S. aureus and E. coli in single‐species and polymicrobial biofilms, DNA standards were prepared by extraction of DNA from planktonic organisms with the microLYSIS‐Plus kit and purification with a DNeasy kit (Qiagen). DNA standards (10^1–10^6 cells) were used in PMA‐qPCR assays to generate standard curves from which the numbers of living organisms within the biofilms could be determined.

HepG2 = assay: alamarBlue cytotoxicity assay, HepG2 cells
[2] = test system: C. albicans in polymicrobial biofilm with S. aureus; assay: PMA-qPCR, C. albicans within C. albicans-S. aureus polymicrobial biofilm; assay type: cell-based, Candida albicans
Protocol: as §1
(§3) Biofilm quantification by PMA‐modified qPCR: In order to determine the bactericidal and fungicidal activity of peptoids against single‐species and polymicrobial biofilms, the biofilms were detached from the microtitre plate wells prior to quantification. The wells were washed as above, then BHI broth (100 μL) was added and the plate was sealed. Biofilm detachment was achieved by sonication for 5 min in an ultrasonic bath (Dawe, Hayes, Middlesex, UK). The remaining cells were then collected in BHI (80 μL). […]
as §2

[3] = test system: S. aureus (NCTC 6571) biofilm; assay: Crystal violet assay, S. aureus monospecies biofilm; assay type: cell-based, Staphylococcus aureus; conditions: peptoid 100 μM, 24 h treatment of 4 h biofilm; n=3
Protocol: (§4) Microorganism strains and growth conditions: C. albicans (NCTC 3179) was subcultured aerobically on Sabouraud agar plates, prepared by using Sabouraud dextrose powder and agar (Oxoid, ThermoFisher) and propagated in yeast peptone dextrose broth. E. coli (ATCC 29522) and S. aureus (NCTC 6571) were grown on blood agar plates (Fanin, Dublin, Ireland) and propagated in brain heart infusion (BHI) broth (Oxoid, ThermoFisher).
(§5) Preparation and treatment of single‐species biofilms: Overnight cultures of C. albicans were washed and resuspended (1.0×10^6 cells per mL) in RPMI‐1640 (Sigma–Aldrich). Overnight cultures of S. aureus or E. coli were washed and resuspended (5.0×10^6 cells per mL) in BHI broth. Samples (100 μL) were added to microtitre plate wells (Thermo Fisher Scientific), and a biofilm was allowed to form for 4 h. Wells were washed with PBS (3×200 μL) to facilitate removal of planktonic cells, and the biofilms were then treated with 1–18 (100 μM in the appropriate medium). Plates were incubated for a further 24 h to allow biofilm maturation. After removal of planktonic cells by washing, biofilms were quantified by the crystal violet assay or by PMA‐qPCR.
(§6) Biofilm quantification by crystal violet assay: Washed biofilms were fixed with methanol (100 μL) for 10 min. Following removal of methanol, the wells were air dried and stained with crystal violet solution (Clin‐Tech, Guildford, UK) for 20 min at room temperature. Excess stain was removed by washing, then the plate was air‐dried and bound crystal violet was re‐solubilised in acetic acid (33 %, 160 μL) prior to reading at 570 nm in a GENios microtitre plate reader (Tecan, Zürich, Switzerland).

HaCaT = assay: alamarBlue cytotoxicity assay, HaCaT keratinocytes
[4] = test system: E. coli in polymicrobial biofilm with C. albicans; assay: PMA-qPCR, E. coli within C. albicans-E. coli polymicrobial biofilm; assay type: cell-based, Escherichia coli
Protocol: as §1
(§7) Biofilm quantification by PMA‐modified qPCR: In order to determine the bactericidal and fungicidal activity of peptoids against single‐species and polymicrobial biofilms, the biofilms were detached from the microtitre plate wells prior to quantification. The wells were washed as above, then BHI broth (100 μL) was added and the plate was sealed. […]
(§8) Generation of standard curves for PMA‐qPCR: For quantification of C. albicans, S. aureus and E. coli in single‐species and polymicrobial biofilms, DNA standards were prepared by extraction of DNA from planktonic organisms with the microLYSIS‐Plus kit and purification with a DNeasy kit (Qiagen). […]

[5] = test system: C. albicans in polymicrobial biofilm with E. coli; assay: PMA-qPCR, C. albicans within C. albicans-E. coli polymicrobial biofilm; assay type: cell-based, Candida albicans
Protocol: as §1, §7, §8

[6] = test system: E. coli monospecies biofilm; assay: PMA-qPCR viable cell number, E. coli monospecies biofilm; assay type: cell-based, Escherichia coli; conditions: peptoid 100 μM, 24 h; n=3
Protocol: as §5, §3, §2

[7] = test system: C. albicans (NCTC 3179) biofilm; assay: Crystal violet assay, C. albicans monospecies biofilm; assay type: cell-based, Candida albicans; conditions: peptoid 100 μM, 24 h treatment of 4 h biofilm; n=3
Protocol: as §4, §5, §6

[8] = test system: S. aureus monospecies biofilm; assay: PMA-qPCR viable cell number, S. aureus monospecies biofilm; assay type: cell-based, Staphylococcus aureus; conditions: peptoid 100 μM, 24 h; n=3
Protocol: as §5, §7, §8

[9] = test system: E. coli (ATCC 29522) biofilm; assay: Crystal violet assay, E. coli monospecies biofilm; assay type: cell-based, Escherichia coli; conditions: peptoid 100 μM, 24 h treatment of 4 h biofilm; n=3
Protocol: as §4, §5, §6

[10] = test system: C. albicans monospecies biofilm; assay: PMA-qPCR viable cell number, C. albicans monospecies biofilm; assay type: cell-based, Candida albicans; conditions: peptoid 100 μM, 24 h; n=3
Protocol: as §5, §3, §2

[11] = alamarBlue viability, 2-100 μM from DMSO stock, 1 h with compound then 24 h incubation at 37 °C, fluorescence, triplicate on a minimum of two occasions

(NahNspeNspe)3 [Peptoid 17]
Reduction of cell numbers of S. aureus in mixed-species biofilm ([1]; peptoid 10 μM, 24 h): ~100% | Reduction in S. aureus cell numbers in cross-kingdom biofilm, concentration series ([1]; peptoid 10-100 μM): the greatest reduction in cell numbers | ED50 HepG2 (HepG2; [11]): > 100 µM | Toxicity to HepG2 cells (in words) (HepG2; alamarBlue, up to 100 μM): negligible toxicity | Reduction in C. albicans cell number in mixed biofilm with S. aureus (PMA-qPCR) ([2]; peptoid 100 μM, 24 h, n=3): less susceptible | Reduction in C. albicans cell numbers in cross-kingdom biofilm with S. aureus, concentration series ([2]; peptoid 10-100 μM, PMA-qPCR): the greatest reduction in cell numbers | Efficacy against S. aureus monospecies biofilm (biomass, crystal violet) [3]: amongst the most efficacious | ED50 HaCaT (HaCaT; [11]): > 100 µM | Toxicity to HaCaT cells (in words) (HaCaT; alamarBlue, up to 100 μM): negligible toxicity | Reduction in E. coli cell number in mixed biofilm with C. albicans (PMA-qPCR) ([4]; peptoid 100 μM, 24 h, n=3): the most active | Reduction in E. coli cell numbers in cross-kingdom biofilm, concentration series ([4]; peptoid 10-100 μM, PMA-qPCR): the greatest reduction in cell numbers | Reduction in C. albicans cell number in mixed biofilm with E. coli (PMA-qPCR) ([5]; peptoid 100 μM, 24 h, n=3): the most active | Reduction in C. albicans cell numbers in cross-kingdom biofilm with E. coli, concentration series ([5]; peptoid 10-100 μM, PMA-qPCR): the greatest reduction in cell numbers | Reduction in viable cell number, E. coli monospecies biofilm (PMA-qPCR) [6]: the most effective | Efficacy against C. albicans monospecies biofilm (biomass, crystal violet) [7]: amongst the most efficacious | Reduction in viable cell number, S. aureus monospecies biofilm (PMA-qPCR) [8]: approximately two orders of magnitude | Efficacy against E. coli monospecies biofilm (biomass, crystal violet) [9]: amongst the most efficacious | Reduction in viable cell number, C. albicans monospecies biofilm (PMA-qPCR) [10]: still caused a significant reduction in the fungal biofilm
